US11117932B2, “Peptides for specific inhibition of Jag 1-Notch 1 pathway” (The Hong Kong Polytechnic University, priority 2018, dated 2021)
Like-named read-outs stand apart in the source and are kept apart here. Residues, ends and D or L forms follow the SMILES beside them. No end group written: not given here.

How the values were obtained:
Format in all cases: cell-based, human
S1 = test: cells
Protocol: (§1) HCT-116, HCT-15, S1-M1-80, S1, L929, HEK293T-Jagged-1 were seeded in each well of a 96-well plate with a series of concentrations (a serial dilution from 1000μM to 0.5 μM) of peptides or drugs including DAPT, Topotecan at 37° C. with 5% CO2 in a humidified incubator for 3 days. Percentage of survival was determined by MTS assay as described.

S1-M1-80 cells [1] = test: cells
Protocol: as §1

S1-M1-80 cells [2] = test: Clonogenicity assay, S1-M1-80; details: S1-M1-80, single agent 1 μM
Protocol: The procedure for colony formation assay consists of following steps. An appropriate number of cells per well were seeded on a 6-well plate in duplicate. The number of cells for seeding should be related to the aggressiveness of the treatment. The cells were incubated for 12 hours in a CO2 incubator at 37° C. and allow cells to attach to the plate. The cells were treated with peptides or (DAPT) to required concentrations. The cells were incubated in a in a CO2 incubator at 37° C. for about 10 days until cells in control well have formed colonies which are of a substantially good size (the minimum score is 100 cells per colony). After the incubation, the medium was removed and cells were rinsed with 5 ml 1×PBS (phosphate buffered saline. pH 7.2). The cells were then fixed with 1 ml methanol at room temperature for 10 min. After fixation, the cells were stained with 0.5% crystal violet solution and incubated at room temperature for 1 h. After staining, the plates were immersed in deionized water to rinse off crystal violet and air-dried at room temperature for overnight. The dry plates were pictured with scanner. The number of colonies in each well was counted by cell counter software.

Row | Compound | IC50 (S1) [µM] | IC50 (S1-M1-80 cells [1]) [µM] | IC50 (S1; Homo sapiens, 72 h, S1 cells, 3 days, MTS, read-out: IC50 (μM) S1) [µM] | IC50 (S1-M1-80 cells [1]; Homo sapiens, 72 h, S1-M1-80 cells, 3 days, MTS, read-out: IC50 (μM) s1-m1-80) [µM] | colony formation (S1-M1-80 cells [2]) [colonies/well]
1 | CLDQIGEF [Peptide N107, CLDQIGEF] | > 100 | > 100 |  |  | 
2 | CC[C@@]1(O)C(=O)OCc2c1cc1n(c2=O)Cc2cc3c(CN(C)C)c(O)ccc3nc2-1 [Topotecan, reference compound] |  |  | 0.19 ± 0.05 | 14.9 ± 0.1 | 1263
3 | CC[C@H](C)[C@H](NC(=O)[C@H](CCC(N)=O)NC(=O)[C@H](CC(=O)O)NC(=O)[C@H](CC(C)C)NC(=O)[C@@H](N)CS)C(=O)NCC(=O)N[C@@H](CCC(=O)O)C(=O)N[C@@H](Cc1ccccc1)C(=O)N[C@@H](CCC(N)=O)C(=O)N[C@@H](CS)C(=O)O [Peptide N105, CLDQIGEFQC] (H-CLDQIGEFQC-OH; N-terminus and C-terminus assumed) | > 100 | > 100 |  |  | 
4 | CC[C@H](C)[C@H](NC(=O)[C@H](CCC(N)=O)NC(=O)[C@H](CC(=O)O)NC(=O)[C@H](CC(C)C)NC(=O)[C@@H](N)CS)C(=O)NCC(=O)N[C@@H](CCC(=O)O)C(=O)N[C@@H](Cc1ccccc1)C(=O)N[C@@H](CCC(N)=O)C(=O)N[C@@H](CS)C(=O)N[C@H](C(=O)N[C@@H](CS)C(=O)N[C@@H](CCSC)C(=O)N1CCC[C@H]1C(=O)O)[C@@H](C)CC [Peptide N101, CLDQIGEFQCICMP] (H-CLDQIGEFQCICMP-OH; N-terminus and C-terminus assumed) | > 50 | 14.1 ± 0.7 |  |  | 
5 | CC[C@H](C)[C@H](NC(=O)[C@H](CCC(N)=O)NC(=O)[C@H](CC(=O)O)NC(=O)[C@H](CC(C)C)NC(=O)[C@@H](N)CS)C(=O)NCC(=O)N[C@@H](CCC(=O)O)C(=O)N[C@@H](Cc1ccccc1)C(=O)N[C@@H](CCC(N)=O)C(=O)N[C@@H](CS)C(=O)N[C@H](C(=O)N[C@@H](CS)C(=O)O)[C@@H](C)CC [Peptide N103, CLDQIGEFQCIC] (H-CLDQIGEFQCIC-OH; N-terminus and C-terminus assumed) | > 100 | > 50 |  |  | 
6 | CLDQIGEFQ [Peptide N106, CLDQIGEFQ] | > 100 | > 100 |  |  | 

Second part, led by results:

Row | IC50 (S1) [µM] | IC50 (S1-M1-80 cells [1]) [µM] | Compound | IC50 (S1; Homo sapiens, 72 h, S1 cells, 3 days, MTS, read-out: IC50 (μM) S1) [µM] | IC50 (S1-M1-80 cells [1]; Homo sapiens, 72 h, S1-M1-80 cells, 3 days, MTS, read-out: IC50 (μM) s1-m1-80) [µM] | colony formation (S1-M1-80 cells [2]) [colonies/well]
7 | > 100 | > 100 | CC[C@H](C)[C@H](N)C(=O)NCC(=O)N[C@@H](CCC(=O)O)C(=O)N[C@@H](Cc1ccccc1)C(=O)N[C@@H](CCC(N)=O)C(=O)N[C@@H](CS)C(=O)N[C@H](C(=O)N[C@@H](CS)C(=O)N[C@@H](CCSC)C(=O)N1CCC[C@H]1C(=O)NCC(=O)O)[C@@H](C)CC [Peptide N112, IGEFQCICMPG] (H-IGEFQCICMPG-OH; N-terminus and C-terminus assumed) |  |  | 
8 | > 100 | > 100 | CLDQIGE [Peptide N108, CLDQIGE] |  |  | 
9 | > 100 | > 100 | CC(C)C[C@H](NC(=O)[C@@H](N)CS)C(=O)N[C@@H](CC(=O)O)C(=O)N[C@@H](CCC(N)=O)C(=O)O [Peptide N111, CLDQ] (H-CLDQ-OH; N-terminus and C-terminus assumed) |  |  | 
10 | > 100 | > 100 | CLDQIG [Peptide N109, CLDQIG] |  |  | 
